# From patent US10219516B2, “Molecules having pesticidal utility, and intermediates, compositions, and processes, related thereto” (priority 2015, dated 2019)
# Assays:
# Assay type in all cases: in vivo
# [1] = tested on: Yellow Fever Mosquito (Aedes aegypti, AEDSAE); experiment: Bioassay on Yellow Fever Mosquito (YFM), 96-well plate larval assay; settings: Yellow Fever Mosquito, 96-well plate larval assay
# Procedure, shortened: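 Aedes aegypti larvae (about 1 day old) in liver-powder water were added to plates dispensed from DMSO master plates (4000 ppm stock) diluted with 90:10 water/acetone; six replicate plates per master. Lidded plates were held at room temperature for 3 days, then each well was scored for mortality.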
# [2] = tested on: Cabbage Looper (Trichoplusia ni, TRIPNI); experiment: Bioassay on Cabbage Looper (CL), 128-well diet tray assay; settings: Trichoplusia ni; Cabbage Looper, 128-well diet tray assay; read-out: CL rating
# Procedure, shortened: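 Second-instar larvae, one to five per well, were placed on artificial diet surface-treated with 50 μg/cm^2 test molecule applied in 90:10 acetone-water and dried, eight wells per molecule. Trays were covered, vented and held at 25° C., 14:10 light-dark for five to seven days; percent mortality per well was averaged.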
# [3] = tested on: Beet Armyworm (Spodoptera exigua, LAPHEG); experiment: Bioassay on Beet Armyworm (BAW), 128-well diet tray assay; settings: Beet Armyworm, 128-well diet tray assay, read-out: BAW rating
# Procedure, shortened: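 Diet tray, 8 wells/compound; 50 μg/cm^2 applied to diet surface (90:10 acetone-water), dried. 1–5 L2 larvae/well; 25° C., 14:10 L:D, 5–7 d. Read-out: % mortality, mean of 8 wells.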
SMILES,YFM rating [1],pest or weed control at 50 µg/cm2 [2],pest or weed control at 50 µg/cm2 [3]
"O=C(Nc1ccc2nccn2c1)c1cc(NC(=O)C2C(c3cc(Cl)cc(Cl)c3)C2(Cl)Cl)ccc1Cl (stereo not drawn) [F475, 2-Chloro-5-(trans)-2,2-dichloro-3-(3,5-dichlorophenyl)cyclopropane-1-carboxamido)-N-(imidazo[1,2-a]pyridin-6-yl)benzamide]",A (80-100),50 to 100%,50 to 100%
"C/S(=N\C#N)c1ccc(NC(=O)c2cc(NC(=O)C3C(c4cc(Cl)cc(Cl)c4)C3(Cl)Cl)ccc2Cl)cc1 (stereo not drawn) [F495, trans-2-chloro-N-(4-(N-cyano-S-methylsulfinimidoyl)phenyl)-5-(2,2-dichloro-3-(3,5-dichlorophenyl)cyclopropane-1-carboxamido)benzamide]",A (80-100),50 to 100%,50 to 100%
"CN1Cc2ccc(NC(=O)c3cc(NC(=O)C4C(c5cc(Cl)cc(Cl)c5)C4(Cl)Cl)ccc3Cl)cc2C1 (stereo not drawn) [F498, 2-Chloro-5-(trans)-2,2-dichloro-3-(3,5-dichlorophenyl)cyclopropane-1-carboxamido)-N-(2-methylisoindolin-5-yl)benzamide]",A (80-100),50 to 100%,50 to 100%
"CS(=O)(=NC#N)c1ccc(NC(=O)c2cc(NC(=O)C3C(c4cc(Cl)cc(Cl)c4)C3(Cl)Cl)ccc2Cl)cc1 (stereo not drawn) [F502, trans-2-chloro-N-(4-(N-cyano-S-methylsulfonimidoyl)phenyl)-5-(2,2-dichloro-3-(3,5-dichlorophenyl)cyclopropane-1-carboxamido)benzamide]",A (80-100),50 to 100%,50 to 100%
Cc1cc(/N=C/c2ccc(Cl)cc2)ccc1NC(=O)c1cc(NC(=O)C2C(c3cc(Cl)cc(Cl)c3)C2(Cl)Cl)ccc1Cl (stereo not drawn) [F510],A (80-100),50 to 100%,50 to 100%
"O=C(Nc1ncc(F)c(NCc2ccccc2)c1F)c1cc(NC(=O)[C@H]2[C@H](c3cc(Cl)cc(Cl)c3)C2(Cl)Cl)ccc1Cl [F524, N-(4-(Benzylamino)-3,5-difluoropyridin-2-yl)-2-chloro-5-((1R,3R)-2,2-dichloro-3-(3,5-dichlorophenyl)cyclopropane-1-carboxamido)benzamide]",A (80-100),50 to 100%,50 to 100%
"O=C(Nc1cncc(NO)c1)c1cc(NC(=O)[C@H]2[C@H](c3cc(Cl)cc(Cl)c3)C2(Cl)Cl)ccc1Cl [F525, 2-Chloro-5-((1R,3R)-2,2-dichloro-3-(3,5-dichlorophenyl)cyclopropane-1-carboxamido)-N-(5-(hydroxyamino)pyridin-3-yl)benzamide]",A (80-100),50 to 100%,50 to 100%
"O=C(Nc1cncc(NO)c1)c1cc(NC(=O)[C@H]2[C@H](c3ccc(Cl)c(Cl)c3)C2(Cl)Cl)ccc1Cl [F526, 2-Chloro-5-((1R,3R)-2,2-dichloro-3-(3,4-dichlorophenyl)cyclopropane-1-carboxamido)-N-(5-(hydroxyamino)pyridin-3-yl)benzamide]",A (80-100),50 to 100%,50 to 100%
"O=C(Nc1ccc(F)cc1F)c1cc(NC(=O)[C@@H]2[C@@H](c3ccc(F)c(Cl)c3)C2(Cl)Cl)ccc1Cl [F534, 2-Chloro-5-((1S,3S)-2,2-dichloro-3-(3-chloro-4-fluorophenyl)cyclopropane-1-carboxamido)-N-(2,4-difluorophenyl)benzamide]",A (80-100),50 to 100%,50 to 100%
"N#Cc1cc(F)ccc1NC(=O)c1cc(NC(=O)[C@H]2[C@H](c3cc(Cl)cc(Cl)c3)C2(Cl)Cl)ccc1Cl [F535, 2-Chloro-N-(2-cyano-4-fluorophenyl)-5-((1R,3R)-2,2-dichloro-3-(3,5-dichlorophenyl)cyclopropane-1-carboxamido)benzamide]",A (80-100),50 to 100%,50 to 100%
"N#Cc1cc(F)ccc1NC(=O)c1cc(NC(=O)[C@@H]2[C@@H](c3cc(Cl)cc(Cl)c3)C2(Cl)Cl)ccc1Cl [F536, 2-Chloro-N-(2-cyano-4-fluorophenyl)-5-((1S,3S)-2,2-dichloro-3-(3,5-dichlorophenyl)cyclopropane-1-carboxamido)benzamide]",A (80-100),50 to 100%,50 to 100%
"COc1c(F)cc(C2C(C(=O)Nc3ccc(Cl)c(C(=O)Nc4ccc(F)cc4F)c3)C2(Cl)Cl)cc1F (stereo not drawn) [F537, 2-Chloro-5-trans-(2,2-dichloro-3-(3,5-difluoro-4-methoxyphenyl)cyclopropane-1-carboxamido)-N-(2,4-difluorophenyl)benzamide]",A (80-100),50 to 100%,50 to 100%
"O=C(Nc1ccc(F)cc1[N+](=O)[O-])c1cc(NC(=O)[C@H]2[C@H](c3cc(Cl)cc(Cl)c3)C2(Cl)Cl)ccc1Cl [F554, 2-Chloro-5-((1R,3R)-2,2-dichloro-3-(3,5-dichlorophenyl)cyclopropane-1-carboxamido)-N-(4-fluoro-2-nitrophenyl)benzamide]",A (80-100),50 to 100%,50 to 100%
"O=C(Nc1ccc(F)cc1[N+](=O)[O-])c1cc(NC(=O)[C@H]2[C@H](c3ccc(Cl)c(Cl)c3)C2(Cl)Cl)ccc1Cl [F555, 2-Chloro-5-((1R,3R)-2,2-dichloro-3-(3,4-dichlorophenyl)cyclopropane-1-carboxamido)-N-(4-fluoro-2-nitrophenyl)benzamide]",A (80-100),50 to 100%,50 to 100%
"O=C(Nc1ccc(F)cc1[N+](=O)[O-])c1cc(NC(=O)[C@H]2[C@H](c3cc(Cl)c(Cl)c(Cl)c3)C2(Cl)Cl)ccc1Cl [F556, 2-Chloro-5-((1R,3R)-2,2-dichloro-3-(3,4,5-trichlorophenyl)cyclopropane-1-carboxamido)-N-(4-fluoro-2-nitrophenyl)benzamide]",A (80-100),50 to 100%,50 to 100%
"O=C(Nc1ccc(F)cc1[N+](=O)[O-])c1cc(NC(=O)[C@H]2[C@H](c3ccc(F)c(Cl)c3)C2(Cl)Cl)ccc1Cl [F557, 2-Chloro-5-((1R,3R)-2,2-dichloro-3-(3-chloro-4-fluorophenyl)cyclopropane-1-carboxamido)-N-(4-fluoro-2-nitrophenyl)benzamide]",A (80-100),50 to 100%,50 to 100%
"O=C(NC1CCc2ncccc2C1)c1cc(NC(=O)C2C(c3cc(Cl)cc(Cl)c3)C2(Cl)Cl)ccc1Cl (stereo not drawn) [F567, 2-Chloro-5-trans-(2,2-dichloro-3-(3,5-dichlorophenyl)cyclopropane-1-carboxamido)-N-(5,6,7,8-tetrahydroquinolin-6-yl)benzamide]",A (80-100),50 to 100%,50 to 100%
"Nc1cc(F)c(NC(=O)c2cc(NC(=O)[C@H]3[C@H](c4cc(Cl)cc(Cl)c4)C3(Cl)Cl)ccc2Cl)cc1F [F568, trans-N-(4-Amino-2,5-difluorophenyl)-2-chloro-5-((1R,3R)-2,2-dichloro-3-(3,5-dichlorophenyl)cyclopropane-1-carboxamido)benzamide]",A (80-100),50 to 100%,50 to 100%
"Nc1cc(F)c(NC(=O)c2cc(NC(=O)[C@H]3[C@H](c4ccc(Cl)c(Cl)c4)C3(Cl)Cl)ccc2Cl)cc1F [F569, trans-N-(4-Amino-2,5-difluorophenyl)-2-chloro-5-((1R,3R)-2,2-dichloro-3-(3,4-dichlorophenyl)cyclopropane-1-carboxamido)benzamide]",A (80-100),50 to 100%,50 to 100%
"Nc1cc(F)c(NC(=O)c2cc(NC(=O)[C@H]3[C@H](c4cc(Cl)c(Cl)c(Cl)c4)C3(Cl)Cl)ccc2Cl)cc1F [F570, trans-N-(4-Amino-2,5-difluorophenyl)-2-chloro-5-((1R,3R)-2,2-dichloro-3-(3,4,5-trichlorophenyl)cyclopropane-1-carboxamido)benzamide]",A (80-100),50 to 100%,50 to 100%
"Nc1cc(F)c(NC(=O)c2cc(NC(=O)[C@H]3[C@H](c4ccc(F)c(Cl)c4)C3(Cl)Cl)ccc2Cl)cc1F [F571, trans-N-(4-Amino-2,5-difluorophenyl)-2-chloro-5-((1R,3R)-2,2-dichloro-3-(3-chloro-4-fluorophenyl)cyclopropane-1-carboxamido)benzamide]",A (80-100),50 to 100%,50 to 100%
"O=C(Nc1ccc(F)cc1F)c1cc(NC(=O)[C@H]2[C@H](c3ccc(Cl)c(Br)c3)C2(Cl)Cl)ccc1Cl [F572, 5-((1R,3R)-3-(3-Bromo-4-chlorophenyl)-2,2-dichlorocyclopropane-1-carboxamido)-2-chloro-N-(2,4-difluorophenyl)benzamide]",A (80-100),50 to 100%,50 to 100%
"O=C(Nc1ccc(F)cc1F)c1cc(NC(=O)[C@@H]2[C@@H](c3ccc(Cl)c(Br)c3)C2(Cl)Cl)ccc1Cl [F573, 5-((1S,3S)-3-(3-Bromo-4-chlorophenyl)-2,2-dichlorocyclopropane-1-carboxamido)-2-chloro-N-(2,4-difluorophenyl)benzamide]",A (80-100),50 to 100%,50 to 100%
